# Source: patent publication US20260008752A1, “POLYMORPHIC FORMS OF FLORBETAPIR PRECURSOR AV-105” (ELI LILLY AND COMPANY, priority 2022, published 2026)
# What was measured:
# Type in all cases: physicochemical
# [1] = Long term slurry experiments (solid form by XRPD after ~2 weeks)
# Description: Samples of starting material were suspended in specified solvents and triturated at specified temperatures. After approximately 24 hours, suspensions were transferred into Spin-X centrifuge tubes equipped with solids 0.45-μm nylon filters and centrifuged. Solids separated were resuspended in fresh solvents and the agitation was continued for a total of 2 weeks. Solids were isolated as described above and analyzed by XRPD.
# (§1) Unless otherwise specified, solids of AV-105 were composed of Form A and were agitated in specified solvents at specified temperatures. Solvents were replaced after approximately 24 hours, where possible. After ˜2 weeks, solids were separated from supernatants via centrifugation with filtration and analyzed by XRPD. Solubilities were evaluated as a single, small scale measurement via gravimetric method using supernatants separated from the solids. Organic solvents used are anhydrous. […] Approximate solvent ratios are expressed in % by volume. Temperatures and duration of experiments are approximate.
# [2] = Equilibrium solubility, gravimetric, from slurry supernatants; conditions: thermodynamic from solid
# Description: Measured aliquots of supernatants isolated from the solids were placed in pre-weighed TGA pans for evaporation.
# as §1
# [3] = Differential scanning calorimetry (heat-of-fusion rule); conditions: at all temperatures; forms monotropically related
# Description: (onset) with a heat of fusion of 78.9 J/g (FIG. 4). […] This is consistent with the screen findings, where conversion of Form A into Form B has been observed in a wide temperature range, between 2-8° C. and 45° C.
smiles,measurement,setting,value
Cc1ccc(S(=O)(=O)OCCOCCOCCOc2ccc(/C=C/c3ccc(N(C)C(=O)OC(C)(C)C)cc3)cn2)cc1 [Form A],Form change on slurrying in a variety of solvent systems,[1]; all solvent systems tested between 2-8° C. and 45° C.,conversion to Form B
Cc1ccc(S(=O)(=O)OCCOCCOCCOc2ccc(/C=C/c3ccc(N(C)C(=O)OC(C)(C)C)cc3)cn2)cc1 [AV-105],solubility,"[2]; ACN/water 50/50 slurry supernatant, aqueous with cosolvent or surfactant or cyclodextrin, ACN/water 50/50, Aw 0.90, RT, solid Form B",2 mg/mL
same,solubility,"[2]; CPME slurry supernatant, 2 °C, organic solvent or mixture, CPME, 2-8° C., solid Form B",25 mg/mL
same,solubility,"[2]; CPME slurry supernatant, organic solvent or mixture, CPME, RT, solid Form B",47 mg/mL
same,solubility,"[2]; EtOAc/heptane 40/60 slurry supernatant, 2 °C, organic solvent or mixture, EtOAc/heptane 40/60, 2-8° C., solid Form B",6 mg/mL
same,solubility,"[2]; EtOAc/heptane 40/60 slurry supernatant, 35 °C, organic solvent or mixture, EtOAc/heptane 40/60, solid Form B",34 mg/mL
same,solubility,"[2]; EtOAc/heptane 40/60 slurry supernatant, organic solvent or mixture, EtOAc/heptane 40/60, RT, solid Form B",27 mg/mL
same,solubility,"[2]; EtOH slurry supernatant, 2 °C, organic solvent or mixture, EtOH, 2-8° C., with solvent replacement, solid Form B",3 mg/mL
same,solubility,"[2]; EtOH slurry supernatant, organic solvent or mixture, EtOH, RT, with solvent replacement (a), starting material mixture of Form A/Form B, solid Form B",7 mg/mL
same,solubility,"[2]; EtOH slurry supernatant, organic solvent or mixture, EtOH, RT, with solvent replacement, solid Form B",7 mg/mL
same,solubility,"[2]; IPA slurry supernatant, 45 °C, organic solvent or mixture, IPA, solid Form B",44 mg/mL
same,solubility,"[2]; IPA slurry supernatant, organic solvent or mixture, IPA, RT, with solvent replacement, solid Form B",4 mg/mL
same,solubility,"[2]; IPrOAc slurry supernatant, 35 °C, organic solvent or mixture, IPrOAc, solid Form B",232 mg/mL
same,solubility,"[2]; IPrOAc slurry supernatant, organic solvent or mixture, IPrOAc, RT, solid Form B",93 mg/mL
same,solubility,"[2]; MIBK slurry supernatant, 2 °C, organic solvent or mixture, MIBK, 2-8° C., solid Form B",128 mg/mL
same,solubility,"[2]; MIBK slurry supernatant, 35 °C, organic solvent or mixture, MIBK, solid Form B",277 mg/mL
same,solubility,"[2]; MIBK slurry supernatant, organic solvent or mixture, MIBK, RT, solid Form B",137 mg/mL
same,solubility,"[2]; MIBK/heptane 40/60 slurry supernatant, organic solvent or mixture, MIBK/heptane 40/60, RT, solid Form B",15 mg/mL
same,solubility,"[2]; MTBE slurry supernatant, organic solvent or mixture, MTBE, RT, solid Form B",34 mg/mL
same,solubility,"[2]; MeOH slurry supernatant, 2 °C, organic solvent or mixture, MeOH, 2-8° C., with solvent replacement, solid Form B",6 mg/mL
same,solubility,"[2]; MeOH slurry supernatant, organic solvent or mixture, MeOH, Freezer, solid Form B + small additional peaks",5 mg/mL
same,solubility,"[2]; MeOH slurry supernatant, organic solvent or mixture, MeOH, RT, with solvent replacement, solid Form B",13 mg/mL
same,solubility,"[2]; THF/cyclohexane 30/70 slurry supernatant, 2 °C, organic solvent or mixture, THF/cyclohexane 30/70, 2-8° C., solid Form B",55 mg/mL
same,solubility,"[2]; THF/cyclohexane 30/70 slurry supernatant, organic solvent or mixture, THF/cyclohexane 30/70, RT, solid Form B",370 mg/mL
same,XRPD Results/observations,"[1]; ACN/water 50/50, Aw 0.90, RT, start Form A, ~2 weeks slurry",Form B
same,XRPD Results/observations,"[1]; CPME, 2-8° C., start Form A, ~2 weeks slurry",Form B
same,XRPD Results/observations,"[1]; CPME, RT, start Form A, ~2 weeks slurry",Form B
same,XRPD Results/observations,"[1]; EtOAc/heptane 40/60, 2-8° C., start Form A, ~2 weeks slurry",Form B
same,XRPD Results/observations,"[1]; EtOAc/heptane 40/60, 35° C., start Form A, ~2 weeks slurry",Form B
same,XRPD Results/observations,"[1]; EtOAc/heptane 40/60, RT, start Form A, ~2 weeks slurry",Form B
same,XRPD Results/observations,"[1]; EtOH, 2-8° C., with solvent replacement, start Form A",Form B
same,XRPD Results/observations,"[1]; EtOH, 45° C. (a), starting material mixture of Form A/Form B",Yellow gel
same,XRPD Results/observations,"[1]; EtOH, 45° C., start Form A","Yellow solution,"
same,XRPD Results/observations,"[1]; EtOH, RT, with solvent replacement (a), starting material mixture of Form A/Form B",Form B
same,XRPD Results/observations,"[1]; EtOH, RT, with solvent replacement, start Form A",Form B
same,XRPD Results/observations,"[1]; IPA, 45° C., start Form A",Form B
same,XRPD Results/observations,"[1]; IPA, RT, with solvent replacement, start Form A",Form B
same,XRPD Results/observations,"[1]; IPrOAc, 35° C., start Form A",Form B
same,XRPD Results/observations,"[1]; IPrOAc, RT, start Form A",Form B
same,XRPD Results/observations,"[1]; MIBK/heptane 40/60, RT, start Form A",Form B
same,XRPD Results/observations,"[1]; MIBK, 2-8° C., start Form A",Form B
same,XRPD Results/observations,"[1]; MIBK, 35° C., start Form A",Form B
same,XRPD Results/observations,"[1]; MIBK, RT, start Form A",Form B
same,XRPD Results/observations,"[1]; MTBE, RT, start Form A",Form B
same,XRPD Results/observations,"[1]; MeOH, 2-8° C., with solvent replacement, start Form A",Form B
same,XRPD Results/observations,"[1]; MeOH, 45° C., start Form A",Orange gel
same,XRPD Results/observations,"[1]; MeOH, Freezer, start Form A",Form B + small
same,XRPD Results/observations,"[1]; MeOH, RT, with solvent replacement, start Form A",Form B
same,XRPD Results/observations,"[1]; THF/cyclohexane 30/70, 2-8° C., start Form A",Form B
same,XRPD Results/observations,"[1]; THF/cyclohexane 30/70, RT, start Form A",Form B
same,XRPD Results/observations,"[1]; Water, 70° C., start Form A",Orange gel after
same,XRPD Results/observations,"[1]; Water, RT, start Form A",Form A
Cc1ccc(S(=O)(=O)OCCOCCOCCOc2ccc(/C=C/c3ccc(N(C)C(=O)OC(C)(C)C)cc3)cn2)cc1 [Form B],Thermodynamic stability from slurry experiments,[1]; between 2-8° C. and 45° C.,thermodynamically the more stable form
same,Relative thermodynamic stability from DSC (heat-of-fusion rule),[3],more stable than Form A
